Data published in patent publication US9575054B2, “Identification of antitumor compounds using placenta” (Anthrogenesis Corporation, priority 2013, dated 2017).

Experiments:
Assay type in all cases: cell-based, human
HCT116 cells [1] = experiment: MTS cell viability, HCT116 cells cultured in wells only; conditions: HCT116 alone, 48 hours, control 100.00%
Experimental: (§1) Blocks of decellularized placental vascular scaffold (DPVS) in 24-well plates were seeded with HCT116 cells (1×10^5 cells/per well), a human colorectal cancer cell line. As a control, HCT116 cells were cultured in wells only, i.e., in the absence of DPVS. Trichostatin A (TSA), a drug contemplated for use in the treatment of cancer, was added to the DPVS/cells or cells alone at concentrations of 20 μM and 100 μM, or was not added at all (as a control). After 48 hours of culture, cell viability was measured by MTS assay. […] Thus, DPVS can be used a platform for assessing cancer cell killing by potential antitumor compounds.

HCT116 cells [2] = experiment: MTS cell viability, HCT116 cells seeded on decellularized placental vascular scaffold (DPVS); conditions: 48 hours, control 100.00%
Experimental: as §1

[3] = system: MDA-MB231/Luciferase cells; experiment: Luciferase activity (Xenogen IVIS) of MDA-MB231/Luciferase cells on DPVS; conditions: TSA 100 ng/mL, 24 hours, cells on DPVS in 6-well plates; untreated 25.63×10^6
Experimental: Cells expressing luciferase were detected visually and quantitatively, using the Xenogen IVIS spectrum, by measuring Luciferase activity of the cells, which is indicative of cell number.
To examine the anti-cancer drug effect on cancer cells grown in DPVS, 1.5×10^5 MDA-MB231/Luciferase cells (a human breast cancer (adenocarcinoma) cell line that expresses luciferase; Cell Biolabs) were seeded onto DPVS in 6-well plates. One set of cells/DPVS was treated with Trichostatin A (TSA, 100 ng/mL) for 24 hours. Luciferase expression by the TSA-treated cells cultured on DPVS was compared with control cultures comprising cells/DPVS that were not treated with TSA. […] Thus, DPVS can be used to study the ability of cancer drugs, e.g., TSA, to affect cancer cell growth in a three-dimensional context.

[4] = system: MDA-MB231/Luc and CRL1803-TT (thyroid tissue carcinoma) cells; experiment: MTS viable cell number of tumor cells in decellularized placental cotyledon (bioreactor); conditions: TSA 100 ng/mL, 10 days in bioreactor, single cotyledon, FIG. 1A
Experimental: (§2) Trichostatin A (TSA, 100 ng/mL) was added to the growth medium (300 mL) and the cells were cultured for 10 days in a bioreactor. As a control, MDA-MB231/Luc and CRL1803-TT were infused into the vasculature of a single isolated cotyledon (3×10^6 cells/cotyledon) and cultured in growth medium only for 10 days in a bioreactor.
(§3) Culture medium was collected throughout the culture period and measured for Calcitonin levels by ELISA. In addition, at the end of the culture (day-10), the numbers of viable cells in both the TSA-treated and control cotyledons were determined by MTS assay.

[5] = system: MDA-MB231/Luc and CRL1803-TT (thyroid tissue carcinoma) cells; experiment: Calcitonin ELISA of culture medium from tumor cells in placental cotyledon; conditions: TSA 100 ng/mL, 10-day culture, single cotyledon, FIG. 1B
Experimental: as §2, §3

[6] = system: MDA-MB231/Luciferase positive cells; experiment: Luciferase expression (IVIS imaging) of MDA-MB231/Luciferase cells in placental cotyledon; conditions: TSA 100 ng/mL, 4 days in bioreactor, single cotyledon
Experimental: MDA-MB231/Luciferase positive cells were infused into the vasculature of a single isolated cotyledon (40×10^6 cells/cotyledon). Trichostatin A (TSA, 100 ng/mL) was added to the growth medium (300 mL) and the cells were cultured for 4 days in a bioreactor. As a control, an equivalent number (40×10^6 cells/cotyledon) of MDA-MB231/Luc cells were infused into the vasculature of a single isolated cotyledon and cultured in growth medium only for 4 days in a bioreactor. After 4 days of culture, each cotyledon was transferred to growth medium comprising Luciferin (150 ng/mL) for 10 minutes. Both cotyledons then were analyzed using the IVIS imaging system.

CC(/C=C/C(=O)NO)=C\[C@@H](C)C(=O)c1ccc(N(C)C)cc1 [TSA, Trichostatin A]
Cell viability (% of untreated control) (HCT116 cells [1]; TSA 20 uM): 11.21% | Cell viability (% of untreated control) (HCT116 cells [1]; TSA 100 uM): 10.36% | Cell viability (% of untreated control) (HCT116 cells [2]; TSA 20 uM): 97.00% | Cell viability (% of untreated control) (HCT116 cells [2]; TSA 100 uM): 73.32% | luciferase signal [3]: 8.22×10^6 | cell survival (viable cells by MTS) vs growth medium control [4]: reduced cell survival | Calcitonin production by the cells [5]: reduced | luciferase expression vs cotyledon cultured in the absence of TSA [6]: marked decrease in luciferase expression
